Tests used:
[1] = test system: PANC-1 subcutaneous human pancreatic cancer xenografts; test: PANC-1 Subcutaneous Human Pancreatic Cancer Xenograft Mouse Model
Protocol: Temperature: 22±3° C. Humidity: 50±20%. Light cycle: 12 hours light and 12 hours dark. Cages: Polycarbonate cages of 300 mm×180 mm×150 mm embedded with the soft wood material were used. The bedding was changed twice a week. Diet: Animals had free access to a certified commercial laboratory diet. Concentrations of contaminants in the diet are routinely analyzed by the manufacturers to ensure the contaminants are below their allowable maximum and thus would not affect the tumor growth.
Water: Animals had free access to sterile drinking water. Cage identification: The identification labels for each cage contained the following information: number of animals, sex, strain, date received, treatment, group number and the starting date of the treatment. Briefly, PANC-1 cell line was originally purchased from the ATCC (CRL-1469) and the PANC-1 primary cell line was derived from the PANC-1 subcutaneously xenograft tumors. The PANC-1 primary cells were maintained in vitro as monolayer culture in DMEM medium supplemented with 10% heat inactivated fetal bovine serum, 100 U/ml penicillin and 100 μg/ml streptomycin and L-glutamine (2 mM) at 37° C. in an atmosphere of 5% CO2 air. The cells growing in exponential phase were harvested and counted for tumor inoculation.
Tumor Cell Inoculation and Randomization. Each animal was inoculated subcutaneously on the right flank with the PANC-1 primary tumor cells (5×10^6/animal) in 0.1 mL of PBS. Tumor development was allowed undisrupted until mean tumor volume reached approximately 85 mm^3. Animals were then randomized into 6 groups, with each group consisting of 8 animals. The test articles were administered to the tumor-bearing animals according to predetermined regimens. […] At the time of routine monitoring, the animals were checked for any effects of tumor growth on normal behavior such as mobility, food and water consumption (by looking only), body weight (BW) gain/loss (BW was measured twice weekly), eye/hair matting and any other abnormal effect. Death and observed clinical signs were recorded on the basis of the numbers of animals within each subset.
Tumor Measurement and the Endpoints: The major endpoint was to evaluate if the tumor growth could be inhibited. Tumor measurement was conducted twice weekly with a caliper and the tumor volume (mm3) is estimated using the formula: TV=a×b^2/2, where a and b are long and short diameters of a tumor, respectively. The tumor sizes were then used for T/C value and TGI (tumor growth inhibition), which are indicators of anti-tumor effectiveness. The T/C value (in percent) is an indication of antitumor effect. T and C are the mean volumes of the treated and control groups, respectively, on a given day. BW change, expressed as %, is calculated using the following formula: BW change (%)=(BW_DayX/BW_Day0)×100, where BW_DayX is BW on a given day, and BW_Day0 was BW on Day 0 (tumor inoculation).
Tumor Sample Collection: Two tumor samples from Group 1, 2 and 3, respectively; six tumor samples from Group 4; five tumor samples from Group 5 and 6, respectively, were snap frozen in liquid nitrogen and kept at −80° C. Total 22 tumor samples were collected.
Statistical Analyses: A one-way ANOVA was performed to compare tumor volumes among groups. All data were analyzed using the SPSS 17.0 software; p<0.05 was considered statistically significant.

[2] = test system: CCI rats, mechanical allodynia; conditions: single oral dose
Protocol: Chronic Constriction Injury (CCI) Model of Neuropathic Pain in Rats. […] Chronic constriction injury of the sciatic nerve was produced by tying four loose ligatures around the left sciatic nerve according to the method of Bennett and Xie. […] Calibrated von Frey filaments were used to determine the lowest mechanical (tactile) threshold required to evoke a brisk paw withdrawal reflex in the rat hindpaws. Rats were allowed to acclimatize in wire mesh cages for 15-20 min prior to von Frey testing. Assessment of paw withdrawal thresholds (PWTs) using von Frey filaments was undertaken prior to CCI-surgery (pre-surgery baseline on day 0). Before the drug dosing on day 14, the pre-dose baseline was recorded for each rat. […] Drug-naïve CCI-rats (n=4-6 per group) were used. The oral vehicle was 0.5% CMC-Na/0.1% Tween 80 in distilled water. The positive control gabapentin was dissolved in the vehicle and orally given at 100 mg/kg (by oral gavage). Test compound was suspended in the vehicle and orally given at 50 mg/kg and 100 mg/kg.

[3] = test system: carrageenan-induced pain in rats; test: Carrageenan Pain Model; type: in vivo, Sprague-Dawley rats; conditions: carrageenan rat model, 30 mg/kg, p.o.
Protocol: Carrageenan Pain Model The carrageenan model is a fast, reliable model used to assess the ability of analgesics to block inflammatory pain. The analgesic effects of test article combinations on pain generation are assayed using the carrageenan-induced pain model in rats. Adult male Sprague-Dawley rats are administered study drugs orally (vehicle, compounds of present disclosure) once daily for 2 days (day −2 and day −1) and 30 minutes prior to the carrageenan injection on day 0 (time=0). For the carrageenan injection, animals are lightly anesthetized and 0.1 ml of 2% carrageenan is injected into the plantar surface of the right hind paw. The positive control indomethacin (30 mg/kg, p.o.) is administered orally immediately before the carrageenan injection. Paw volumes (right and left) are measured using a Plethysmometer before drug administration on day −2 and serve as a baseline measurement. The paw volumes are measured again two hours post carrageenan injection. The degree of mechanical allodynia is measured by a blinded observer using Von Frey filaments applied to the plantar surface of the hind paws in an increasing numerical order. Each filament increases the force applied on the paw. The filaments are applied until animal paw withdrawal is achieved. […] Results are expressed as mean change from baseline across five timepoints post carrageenan injection.

## Nc1ccn([C@@H]2O[C@H](CO)[C@@H](O)C2(F)F)c(=O)n1 [Gemcitabine, gemcitabine]
[1]; gemcitabine 10 mg/kg (alone or with Compound-12, see label)
  TGI (%, D18): 3%
[1]; gemcitabine 20 mg/kg (alone or with Compound-12, see label)
  TGI (%, D18): 48%
[1]; Day 7, gemcitabine 10 mg/kg (alone or with Compound-12, see label)
  Tumor volume (Mean ± SEM): 83 ± 4 mm^3
[1]; Day 7, gemcitabine 20 mg/kg (alone or with Compound-12, see label)
  Tumor volume (Mean ± SEM): 83 ± 3 mm^3
[1]; Day 11, gemcitabine 10 mg/kg (alone or with Compound-12, see label)
  Tumor volume (Mean ± SEM): 142 ± 12 mm^3
[1]; Day 11, gemcitabine 20 mg/kg (alone or with Compound-12, see label)
  Tumor volume (Mean ± SEM): 109 ± 8 mm^3
[1]; Day 14, gemcitabine 20 mg/kg (alone or with Compound-12, see label)
  Tumor volume (Mean ± SEM): 138 ± 9 mm^3
[1]; Day 18, gemcitabine 10 mg/kg (alone or with Compound-12, see label)
  Tumor volume (Mean ± SEM): 346 ± 21 mm^3
[1]; Day 19, gemcitabine 10 mg/kg (alone or with Compound-12, see label)
  Tumor volume (Mean ± SEM): 374 ± 19 mm^3
[1]; Day 19, gemcitabine 20 mg/kg (alone or with Compound-12, see label)
  Tumor volume (Mean ± SEM): 216 ± 18 mm^3

## NCC1(CC(=O)O)CCCCC1 [gabapentin, reference compound]
[2]
  side effects observed in dosed CCI-rats: drowsiness or motor incoordination

## COc1ccc2c(c1)c(CC(=O)O)c(C)n2C(=O)c1ccc(Cl)cc1 [indomethacin, reference compound]
[3]
  analgesic effect: about 100%
